Test results published in ChEMBL document CHEMBL3745631, “Discovery of highly potent and selective Bruton's tyrosine kinase inhibitors: Pyridazinone analogs with improved metabolic stability” (Bioorg Med Chem Lett, 2016).

Columns and labels:
Liver microsome [1] = test: Intrinsic clearance in human liver microsomes at 1 uM by LC-MS/MS analysis in absence of NADPH; type: ADME
[2] = target: Tyrosine-protein kinase BTK (Homo sapiens, UniProt Q06187); test: Inhibition of BTK (unknown origin) by Lanthascreen assay
Tyrosine-protein kinase BTK (Homo sapiens, UniProt Q06187), sequence (Q06187 whole entry): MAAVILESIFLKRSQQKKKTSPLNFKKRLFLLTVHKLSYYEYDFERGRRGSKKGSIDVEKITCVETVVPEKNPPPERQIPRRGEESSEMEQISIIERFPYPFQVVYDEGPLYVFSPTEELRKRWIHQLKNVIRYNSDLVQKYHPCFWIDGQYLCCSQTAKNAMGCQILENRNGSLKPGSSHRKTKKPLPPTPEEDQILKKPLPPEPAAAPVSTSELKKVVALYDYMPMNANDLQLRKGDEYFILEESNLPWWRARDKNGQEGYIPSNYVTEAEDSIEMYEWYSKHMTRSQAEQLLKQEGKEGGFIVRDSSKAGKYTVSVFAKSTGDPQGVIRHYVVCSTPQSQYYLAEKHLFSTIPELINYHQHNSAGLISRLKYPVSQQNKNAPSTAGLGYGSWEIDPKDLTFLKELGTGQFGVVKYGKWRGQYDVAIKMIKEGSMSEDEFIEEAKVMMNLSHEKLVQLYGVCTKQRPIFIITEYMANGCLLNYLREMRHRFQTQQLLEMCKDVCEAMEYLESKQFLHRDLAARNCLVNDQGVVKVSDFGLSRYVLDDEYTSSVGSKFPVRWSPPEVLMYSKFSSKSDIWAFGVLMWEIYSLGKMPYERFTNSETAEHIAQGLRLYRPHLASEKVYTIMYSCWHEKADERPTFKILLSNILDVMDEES

[3] = target: Tyrosine-protein kinase BTK (Mus musculus, UniProt P35991); test: Inhibition of BTK in Balb/c mouse B cells assessed as inhibition of anti-IgM-stimulated CD86 expression by flow cytometry; type: cell-based
Tyrosine-protein kinase BTK (Mus musculus, UniProt P35991), sequence (P35991 whole entry): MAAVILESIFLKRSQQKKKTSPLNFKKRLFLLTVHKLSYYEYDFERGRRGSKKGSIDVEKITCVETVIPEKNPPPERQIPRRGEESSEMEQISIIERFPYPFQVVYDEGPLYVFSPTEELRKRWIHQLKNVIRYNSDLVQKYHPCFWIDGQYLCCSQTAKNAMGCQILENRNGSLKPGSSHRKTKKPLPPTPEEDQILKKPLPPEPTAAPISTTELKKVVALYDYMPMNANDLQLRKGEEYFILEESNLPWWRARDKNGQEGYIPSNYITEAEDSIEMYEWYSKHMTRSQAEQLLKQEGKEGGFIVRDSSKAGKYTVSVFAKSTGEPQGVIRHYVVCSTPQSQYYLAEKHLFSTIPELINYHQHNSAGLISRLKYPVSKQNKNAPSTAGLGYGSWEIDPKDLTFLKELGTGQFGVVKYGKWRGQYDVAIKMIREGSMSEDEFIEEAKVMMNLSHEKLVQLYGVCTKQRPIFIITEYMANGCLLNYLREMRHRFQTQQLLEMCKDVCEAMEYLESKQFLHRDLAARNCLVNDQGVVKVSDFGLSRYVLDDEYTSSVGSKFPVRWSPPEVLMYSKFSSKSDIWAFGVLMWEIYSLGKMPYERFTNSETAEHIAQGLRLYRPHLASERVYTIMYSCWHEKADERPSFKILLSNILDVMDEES

Liver microsome [4] = test: Intrinsic clearance in human liver microsomes at 1 uM by LC-MS/MS analysis in presence of NADPH; type: ADME
Hepatocyte = test: Intrinsic clearance in human hepatocytes at 1 uM by LC-MS/MS analysis; type: ADME, cell-based

Row | SMILES | CLH (Liver microsome [1]) [mL/min/kg] | IC50 [2] [nM] | IC50 [3] [nM] | CLH (Liver microsome [4]) [mL/min/kg] | CLH (Hepatocyte) [mL/min/kg]
1 | CN1CCN(C)C(c2ccc(Nc3nc(-c4ccc(Cl)c(NC(=O)c5cc6c(s5)CCCC6)c4F)cn(C)c3=O)cc2)C1=O (configuration not stated) | < 6 | – | – | – | –
2 | Cc1ccc(-c2cc(Nc3cc4n(n3)CCN(C)C4)c(=O)[nH]n2)c(F)c1NC(=O)c1cc2ccccc2s1 | 6 | 11 | 200 | 6 | –
3 | Cc1c(-c2cn(C)c(=O)c(Nc3ccc(C4C(=O)N(C)CCN4C)cc3)n2)ccc(F)c1NC(=O)c1cc2c(s1)CCCC2 (stereo in doubt; 13) | 6 | – | – | – | –
4 | CN1CCN(C)C(c2ccc(Nc3nc(-c4ccc(Cl)c(NC(=O)c5cc6c(s5)CCCC6)c4Cl)cn(C)c3=O)cc2)C1=O (racemic) | 6 | – | – | – | –
5 | Cc1c(-c2cc(Nc3cc4n(n3)CCN(C)C4)c(=O)[nH]n2)ccc(F)c1NC(=O)c1ccc(C(C)(C)C)cc1 | 6 | 4 | 54 | > 15 | 6
6 | CN1CCN(C)C(c2ccc(Nc3nc(-c4ccc(F)c(NC(=O)c5cc6c(s5)CCCC6)c4)cn(C)c3=O)cc2)C1=O (stereo in doubt; 8) | 6 | – | – | – | –
7 | CN1CCN(C)C(c2ccc(Nc3nc(-c4ccc(F)c(NC(=O)c5cc6c(s5)CCCC6)c4)cn(C)c3=O)cc2)C1=O (stereo in doubt; 7) | < 6 | – | – | – | –
8 | CN1CCn2nc(Nc3cc(-c4ccc(F)c(NC(=O)c5cc6ccccc6s5)c4)n[nH]c3=O)cc2C1 | < 6 | – | 50 | > 15 | > 15
9 | Cc1c(-c2cc(Nc3cc4n(n3)CCN(C)C4)c(=O)[nH]n2)ccc(F)c1NC(=O)c1cc2cccnc2s1 | 6 | – | 740 | 6 | –
10 | Cc1c(-c2cc(Nc3cc4n(n3)CCN(C)C4)c(=O)[nH]n2)ccc(F)c1NC(=O)c1cnc(C(C)(C)C)cn1 | 6 | 4 | 90 | 6 | 6
11 | Cc1c(-c2cn(C)c(=O)c(Nc3ccc(C4C(=O)N(C)CCN4C)cc3)n2)ccc(Cl)c1NC(=O)c1cc2c(s1)CCCC2 (racemic) | 6 | – | – | – | –
12 | CN1CCN(C)C(c2ccc(Nc3nc(-c4cccc(NC(=O)c5cc6c(s5)CCCC6)c4Cl)cn(C)c3=O)cc2)C1=O (racemic) | > 15 | – | – | – | –
13 | Cc1c(-c2cn(C)c(=O)c(Nc3ccc(C4C(=O)N(C)CCN4C)cc3)n2)ccc(F)c1NC(=O)c1cc2c(s1)CCCC2 (stereo in doubt; 14) | < 6 | – | – | – | –
14 | Cc1c(NC(=O)c2cc3c(s2)CCCC3)cccc1-c1cn(C)c(=O)c(Nc2ccc([C@@H]3C(=O)N(C)CCN3C)cc2)n1 | > 15 | – | – | – | –
15 | Cc1c(-c2cc(Nc3cc4n(n3)CCN(C)C4)c(=O)[nH]n2)ccc(F)c1NC(=O)c1cc2ncccc2s1 | 6 | – | 680 | 6 | 6
16 | CN1CCN(C)C(c2ccc(Nc3nc(-c4cccc(NC(=O)c5cc6c(s5)CCCC6)c4)cn(C)c3=O)cc2)C1=O (racemic) | > 15 | – | – | – | –
17 | CN1CCN(C)C(c2ccc(Nc3nc(-c4ccc(Cl)c(NC(=O)c5cc6c(s5)CCCC6)c4)cn(C)c3=O)cc2)C1=O (racemic) | 6 | – | – | – | –
18 | Cc1ccc(-c2cn(C)c(=O)c(Nc3ccc([C@@H]4C(=O)N(C)CCN4C)cc3)n2)c(F)c1NC(=O)c1cc2c(s1)CCCC2 | < 6 | – | – | – | –
19 | CN1CCN(C)C(c2ccc(Nc3nc(-c4ccc(F)c(NC(=O)c5cc6c(s5)CCCC6)c4F)cn(C)c3=O)cc2)C1=O (configuration not stated) | 6 | – | – | – | –
20 | Cc1ccc(-c2cn(C)c(=O)c(Nc3ccc(C4C(=O)N(C)CCN4C)cc3)n2)c(Cl)c1NC(=O)c1cc2c(s1)CCCC2 (configuration not stated) | < 6 | – | – | – | –
21 | Cc1ccc(-c2cc(Nc3cc4n(n3)CCN(C)C4)c(=O)[nH]n2)c(C)c1NC(=O)c1cc2ccccc2s1 | < 6 | – | 387 | > 15 | –
22 | Cc1ccc(-c2cn(C)c(=O)c(Nc3ccc([C@H]4C(=O)N(C)CCN4C)cc3)n2)c(F)c1NC(=O)c1cc2c(s1)CCCC2 | < 6 | – | – | – | –
23 | CN1CCN(C)C(c2ccc(Nc3nc(-c4ccc(C#N)c(NC(=O)c5cc6c(s5)CCCC6)c4)cn(C)c3=O)cc2)C1=O (racemic) | < 6 | – | – | – | –
24 | CN1CCn2nc(Nc3cc(-c4ccc(F)c(NC(=O)c5cc6ccccc6s5)c4F)n[nH]c3=O)cc2C1 | – | – | 18 | > 15 | 6
25 | CN1CCN(C)C(c2ccc(Nc3nc(-c4cccc(NC(=O)c5cc6c(s5)CCCC6)c4F)cn(C)c3=O)cc2)C1=O (racemic) | > 15 | – | – | – | –
26 | Cc1c(NC(=O)c2cc3ccccc3s2)cccc1-c1cc(Nc2cc3n(n2)CCN(C)C3)c(=O)[nH]n1 | > 15 | – | 41 | > 15 | –
27 | Cc1ccc(-c2cn(C)c(=O)c(Nc3ccc(C4C(=O)N(C)CCN4C)cc3)n2)c(C)c1NC(=O)c1cc2c(s1)CCCC2 (racemic) | < 6 | – | – | – | –
